# Reference: US4309437A, “Pyrrolo-benzodiazepine compounds and anti-tumor composition thereof” (priority 1979, dated 1982)
# Counter-ions that a name gives are not always drawn.
# Legend:
# [1] = Toxicity test (LD50, intraperitoneal, mice); format: in vivo, mouse; conditions: mouse, in vivo, ip, dd-strain male mice, 18 to 21 g, 3 weeks observation, Probit analysis
# Procedure: (§1) Toxicity test: The compound being tested is suspended in physiological saline in varied concentrations by the serial dilution method (common ratio, 1:1.5). Each solution was administered intraperitoneally to groups of 8 to 12 dd-strain male mice, each 18 to 21 g in body weight. The mice were then bred on a usual diet and water. The LD50 value was determined by Probit analysis by observing dead and alive for 3 weeks after the administration.
# [2] = known, in words; cited from earlier work
# [3] = said to be exhibited due to side effects; cited from earlier work
# [4] = known, in words; cited from earlier work; remark: listed apart in the source
# [5] = test system: dd-strain male mice; assay: Toxicity test (LD50, intraperitoneal, mice); format: in vivo, mouse; conditions: 18 to 21 g, 3 weeks observation, Probit analysis, 30240 min
# Procedure: as §1
compound,measurement,setting,value
"CC(=O)Oc1c(C)ccc2c1NC(S(=O)O)C1CC(/C=C/C(N)=O)=CN1C2=O (stereo not shown) [R1=COCH3, R2=H, R3=SO2 H, 5,10,11,11a-Tetrahydro-9-acetoxy-8-methyl-5-oxo-11-sulfino-1H-pyrrolo[2,1-c][1,4]benzodiazepin-2-acrylamide]",LD50 at 504 h,[1],2.54 mg/kg
"CC(=O)N1c2c(ccc(C)c2O)C(=O)N2C=C(/C=C/C(N)=O)CC2C1S(=O)O (stereo not shown) [R1=H, R2=COCH3, R3=SO2 H, 5,10,11,11a-tetrahydro-10-acetyl-9-hydroxy-8-methyl-5-oxo-11-sulfino-1H-pyrrolo-[2,1-c][1,4]benzodiazepin-2-acrylamide]",LD50 at 504 h,[1],2.5 mg/kg
"Cc1ccc2c(c1OC(N)=O)NC(S(=O)O)C1CC(/C=C/C(N)=O)=CN1C2=O (stereo not shown) [R1=CONH2, R2=H, R3=SO2 H, 5,10,11,11a-Tetrahydro-9-carbamyloxy-8-methyl-5-oxo-11-sulfino-1H-pyrrolo[2,1-c][1,4]benzodiazepin-2-acrylamide]",LD50 at 504 h,[1],2.37 mg/kg
"CC(=O)N1c2c(ccc(C)c2OC(N)=O)C(=O)N2C=C(/C=C/C(N)=O)CC2C1S(=O)(=O)O (stereo not shown) [R1=CONH2, R2=COCH3, R3=SO3 H, 5,10,11,11a-Tetrahydro-10-acetyl-9-carbamyloxy-8-methyl-5-oxo-11-sulfo-1H-pyrrolo[2,1-c][1,4]benzodiazepin-2-acrylamide]",LD50 at 504 h,[1],2.8 mg/kg
"COC(=O)Oc1c(C)ccc2c1NC(S(=O)O)C1CC(/C=C/C(N)=O)=CN1C2=O (stereo not shown) [R1=COOCH3, R2=H, R3=SO2 H]",LD50 at 504 h,[1],2.56 mg/kg
"COC1Nc2c(ccc(C)c2O)C(=O)N2C=C(/C=C/C(N)=O)CC12 (single isomer, unassigned) [P""B""A""]",antitumor activity,[2],very strong antitumor activity
same,"toxicity, particularly cardiotoxicity",[3],"strong toxicity, particularly cardiotoxicity"
same,antibacterial activity,[4],antibacterial and antitumor activities are exhibited
"Cc1ccc2c(c1O)N=CC1CC(/C=C/C(N)=O)=CN1C2=O (stereo not shown) [P'B'A', 5,11,11a-trihydro-9-hydroxy-8-methyl-5-oxo-1H-pyrrolo-[2,1-c][1,4]benzodiazepin-2-acrylamide]",antitumor activity,[2],very strong antitumor activity
same,"toxicity, particularly cardiotoxicity",[3],"strong toxicity, particularly cardiotoxicity"
same,antibacterial activity,[4],antibacterial and antitumor activities are exhibited
"Cc1ccc2c(c1O)NC(S(=O)O)C1CC(/C=C/C(N)=O)=CN1C2=O (stereo not shown) [R1=H, R2=H, R3=SO2 K]",LD50,[5],2.31 mg/kg
"Cc1ccc2c(c1O)NC(S(=O)O)C1CC(/C=C/C(N)=O)=CN1C2=O (stereo not shown) [R1=H, R2=H, R3=SO2 H, 5,10,11,11a-tetrahydro-9-hydroxy-8-methyl-5-oxo-11-sulfino-1H-pyrrolo[2,1-c][1,4]-benzodiazepin-2-acrylamide]",LD50 at 504 h,[1],2.18 mg/kg
"CC(=O)Oc1c(C)ccc2c1N(C(C)=O)C(S(=O)O)C1CC(/C=C/C(N)=O)=CN1C2=O (stereo not shown) [R1=COCH3, R2=COCH3, R3=SO2 H, 5,10,11,11a-tetrahydro-9-acetoxy-10-acetyl-8-methyl-5-oxo-11-sulfino-1H-pyrrolo-[2,1-c][1,4]benzodiazepin-2-acrylamide]",LD50,[5],2.62 mg/kg
"CC(=O)Oc1c(C)ccc2c1NC(S(=O)O)C1CC(/C=C/C(N)=O)=CN1C2=O (stereo not shown) [R1=COCH3, R2=H, R3=SO2 Na, 5,10,11,11a-tetrahydro-9-acetoxy-8-methyl-5-oxo-11-sulfino-1H-pyrrolo[2,1-c][1,4]benzodiazepin-2-acrylamide sodium salt]",LD50,[5]; sodium salt,2.60 mg/kg
"CC(=O)Oc1c(C)ccc2c1NC(S(=O)(=O)O)C1CC(/C=C/C(N)=O)=CN1C2=O (stereo not shown) [R1=COCH3, R2=H, R3=SO3 H, 5,10,11,11a-tetrahydro-9-acetoxy-8-methyl-5-oxo-11-sulfo-1H-pyrrolo[2,1-c][1,4]benzodiazepin-2-acrylamide]",LD50 at 504 h,[1],2.68 mg/kg
"CC(=O)Oc1c(C)ccc2c1N(C(C)=O)C(S(=O)(=O)O)C1CC(/C=C/C(N)=O)=CN1C2=O (stereo not shown) [R1=COCH3, R2=COCH3, R3=SO3 Na]",LD50 at 504 h,[1],3.04 mg/kg
"CC(=O)Oc1c(C)ccc2c1N(C(C)=O)C(S(=O)O)C1CC(/C=C/C(N)=O)=CN1C2=O (stereo not shown) [R1=COCH3, R2=COCH3, R3=SO2 Na]",LD50 at 504 h,[1],2.71 mg/kg
"Cc1ccc2c(c1O)NC(S(=O)(=O)O)C1CC(/C=C/C(N)=O)=CN1C2=O (stereo not shown) [R1=H, R2=H, R3=SO3 Na]",LD50,[5],2.31 mg/kg
"Cc1ccc2c(c1O)NC(S(=O)O)C1CC(/C=C/C(N)=O)=CN1C2=O (stereo not shown) [R1=H, R2=H, R3=SO2 Na]",LD50,[5],2.28 mg/kg
"Cc1ccc2c(c1O)NC(O)C1CC(/C=C/C(N)=O)=CN1C2=O (single isomer, unassigned) [PBA, 5,10,11,11a-tetrahydro-9,11-dihydroxy-8-methyl-5-oxo-1H-pyrrolo[2,1-c][1,4]-benzodiazepin-2-acrylamide]",antitumor activity,[2],very strong antitumor activity
same,LD50 at 504 h,[1],0.73 mg/kg
same,"toxicity, particularly cardiotoxicity",[3],"strong toxicity, particularly cardiotoxicity"
same,antibacterial activity,[4],antibacterial and antitumor activities are exhibited
"Cc1ccc2c(c1O)NC(S(=O)(=O)O)C1CC(/C=C/C(N)=O)=CN1C2=O (stereo not shown) [R1=H, R2=H, R3=SO3 H, 5,10,11,11a-Tetrahydro-9-hydroxy-8-methyl-5-oxo-11-sulfo-1H-pyrrolo[2,1-c][1,4]benzodiazepin-2-acrylamide]",LD50 at 504 h,[1],2.21 mg/kg
"CC(=O)N1c2c(ccc(C)c2O)C(=O)N2C=C(/C=C/C(N)=O)CC2C1S(=O)(=O)O (stereo not shown) [R1=H, R2=COCH3, R3=SO3 H, 5,10,11,11a-Tetrahydro-10-acetyl-9-hydroxy-8-methyl-5-oxo-11-sulfo-1H-pyrrolo[2,1-c][1,4]benzodiazepin-2-acrylamine]",LD50,[5],2.43 mg/kg
"CC(=O)N1c2c(ccc(C)c2OC(N)=O)C(=O)N2C=C(/C=C/C(N)=O)CC2C1S(=O)O (stereo not shown) [R1=CONH2, R2=COCH3, R3=SO2 H, 5,10,11,11a-tetrahydro-10-acetyl-9-carbamyloxy-8-methyl-5-oxo-11-sulfino-1H-pyrrolo[2,1-c][1,4]benzodiazepin-2-acrylamide]",LD50 at 504 h,[1],2.84 mg/kg
"CC(=O)N1c2c(ccc(C)c2O)C(=O)N2C=C(/C=C/C(N)=O)CC2C1S(=O)(=O)O (stereo not shown) [R1=H, R2=COCH3, R3=SO3 Na, 5,10,11,11a-tetrahydro-10-acetyl-9-hydroxy-8-methyl-5-oxo-11-sulfo-1H-pyrrolo[2,1-c][1,4]benzodiazepin-2-acrylamide sodium salt]",LD50 at 504 h,[1],2.51 mg/kg
"COC(=O)Oc1c(C)ccc2c1NC(S(=O)(=O)O)C1CC(/C=C/C(N)=O)=CN1C2=O (stereo not shown) [R1=COOCH3, R2=H, R3=SO3 H, 5,10,11,11a-tetrahydro-8-methyl-9-methoxycarbonyloxy-5-oxo-11-sulfo-1H-pyrrolo[2,1-c][1,4]-benzodiazepin-2-acrylamide]",LD50 at 504 h,[1],2.55 mg/kg
"CC(=O)Oc1c(C)ccc2c1N(C(C)=O)C(S(=O)(=O)O)C1CC(/C=C/C(N)=O)=CN1C2=O (stereo not shown) [R1=COCH3, R2=COCH3, R3=SO3 H, 5,10,11,11a-Tetrahydro-9-acetoxy-10-acetyl-8-methyl-5-oxo-11-sulfo-1H-pyrrolo[2,1-c][1,4]benzodiazepin-2-acrylamide]",LD50,[5],2.81 mg/kg
"Cc1ccc2c(c1OC(N)=O)NC(S(=O)(=O)O)C1CC(/C=C/C(N)=O)=CN1C2=O (stereo not shown) [R1=CONH2, R2=H, R3=SO3 H, 5,10,11,11a-Tetrahydro-9-carbamyloxy-8-methyl-5-oxo-11-sulfo-1H-pyrrolo[2,1-c][1,4]benzodiazepin-2-acrylamide]",LD50 at 504 h,[1],2.4 mg/kg
